Measurements: patent US4229204A, “Trifluoromethylphenyl isoxazolyl benzoates” (Monsanto Company, priority 1978, dated 1980)

Tests used:
Format in all cases: in vivo
[1] = system: Sugarbeet; assay: Pre-emergent herbicidal test; settings: 2 WAT
Method: (§1) The pre-emergent test was conducted as follows:
(§2) A good grade of top soil was placed in aluminum pans and compacted to a depth of three-eighths to one-half inch from the top of the pan. On the top of the soil was placed a predetermined number of seeds or vegetative propagules of various plant species which were pressed into the soil surface. The soil required to level fill the pans after seeding or adding vegetative propagules was weighed into a pan. A known amount of the active ingredient applied in a solvent or as a wettable powder and the soil were thoroughly mixed, and used as a cover layer for prepared pans.
(§3) The herbicidal rating was obtained by means of a fixed scale based on the percent injury of each plant species. The ratings are defined as follows: […]

[2] = system: Sorghum; assay: Pre-emergent herbicidal test; settings: 2 WAT
Method: as §1, §2, §3

[3] = system: Panicum Spp.; assay: Pre-emergent herbicidal test; settings: 2 WAT
Method: as §1, §2, §3

[4] = system: Rice; assay: Pre-emergent herbicidal test; settings: 2 WAT
Method: as §1, §2, §3

[5] = system: Hemp Sesbania; assay: Pre-emergent herbicidal test; settings: 2 WAT
Method: as §1, §2, §3

[6] = system: Soybean; assay: Pre-emergent herbicidal test; settings: 2 WAT
Method: as §1, §2, §3

[7] = system: Wheat; assay: Pre-emergent herbicidal test; settings: 2 WAT
Method: as §1, §2, §3

[8] = system: Crabgrass; assay: Pre-emergent herbicidal test; settings: 2 WAT
Method: as §1, §2, §3

[9] = system: Wild Buckwheat; assay: Pre-emergent herbicidal test; settings: 2 WAT
Method: as §1, §2, §3

[10] = system: Velvetleaf; assay: Post-emergent herbicidal test; settings: 4 WAT, 11.2 kg/h
Method: (§4) The post-emergent tests were conducted as follows:
(§5) The active ingredients are applied in spray form to two or three week old specimens of various plant species. The spray, a solution or wettable powder suspension containing the appropriate rate of active ingredient to give the desired test rate and a surfactant, is applied to the plants.
(§6) The compounds were also tested by utilizing the above procedure on the following plant species: […]

[11] = system: Morningglory; assay: Post-emergent herbicidal test; settings: 4 WAT, 11.2 kg/h
Method: as §4, §5, §6

[12] = system: Canada Thistle; assay: Post-emergent herbicidal test; settings: 4 WAT, 11.2 kg/h
Method: as §4, §5, §6

[13] = system: Johnsongrass; assay: Post-emergent herbicidal test; settings: 4 WAT, 11.2 kg/h
Method: as §4, §5, §6

[14] = system: Barnyardgrass; assay: Post-emergent herbicidal test; settings: 4 WAT, 11.2 kg/h
Method: as §4, §5, §6

[15] = system: Quackgrass; assay: Post-emergent herbicidal test; settings: 4 WAT, 11.2 kg/h
Method: as §4, §5, §6

[16] = system: Yellow Nutsedge; assay: Post-emergent herbicidal test; settings: 4 WAT, 11.2 kg/h
Method: as §4, §5, §6

[17] = system: Lambsquarters; assay: Post-emergent herbicidal test; settings: 4 WAT, 11.2 kg/h
Method: as §4, §5, §6

[18] = system: Downy Brome; assay: Post-emergent herbicidal test; settings: 4 WAT, 11.2 kg/h
Method: as §4, §5, §6

[19] = system: Smartweed; assay: Post-emergent herbicidal test; settings: 4 WAT, 11.2 kg/h
Method: as §4, §5, §6

[20] = system: Cocklebur; assay: Post-emergent herbicidal test; settings: 4 WAT, 11.2 kg/h
Method: as §4, §5, §6

[21] = system: Velvetleaf; assay: Pre-emergent herbicidal test
Method: as §1, §2, §3, §6

[22] = system: Morningglory; assay: Pre-emergent herbicidal test
Method: as §1, §2, §3, §6

[23] = system: Canada Thistle; assay: Pre-emergent herbicidal test; settings: 4 WAT, 11.2 kg/h
Method: as §1, §2, §3, §6

[24] = system: Johnsongrass; assay: Pre-emergent herbicidal test; settings: 4 WAT, 11.2 kg/h
Method: as §1, §2, §3, §6

[25] = system: Barnyardgrass; assay: Pre-emergent herbicidal test
Method: as §1, §2, §3, §6

[26] = system: Quackgrass; assay: Pre-emergent herbicidal test; settings: 4 WAT, 11.2 kg/h
Method: as §1, §2, §3, §6

[27] = system: Yellow Nutsedge; assay: Pre-emergent herbicidal test; settings: 4 WAT, 11.2 kg/h
Method: as §1, §2, §3, §6

[28] = system: Lambsquarters; assay: Pre-emergent herbicidal test
Method: as §1, §2, §3, §6

[29] = system: Downy Brome; assay: Pre-emergent herbicidal test
Method: as §1, §2, §3, §6

[30] = system: Smartweed; assay: Pre-emergent herbicidal test
Method: as §1, §2, §3, §6

[31] = system: Cocklebur; assay: Pre-emergent herbicidal test
Method: as §1, §2, §3, §6
Note: ranges in brackets are in %.

## CCCCOC(=O)c1ccccc1-c1cc(-c2cccc(C(F)(F)F)c2)no1 [Example 6, n-Butyl 2-[3-[3-(Trifluoromethyl)Phenyl]-5-Isoxazolyl]Benzoate]
[1]; 0.28 kg/h
  herbicidal rating: 1 (25-49)
[1]; 1.12 kg/h
  herbicidal rating: 2 (50-74)
[1]; 5.60 kg/h
  herbicidal rating: 2 (50-74)
[2]; 0.28 kg/h
  herbicidal rating: 0 (0-24)
[2]; 1.12 kg/h
  herbicidal rating: 1 (25-49)
[2]; 5.60 kg/h
  herbicidal rating: 3 (75-100)
[3]; 0.28 kg/h
  herbicidal rating: 3 (75-100)
[3]; 1.12 kg/h
  herbicidal rating: 1 (25-49)
[3]; 5.60 kg/h
  herbicidal rating: 2 (50-74)
[4]; 0.28 kg/h
  herbicidal rating: 2 (50-74)
[4]; 1.12 kg/h
  herbicidal rating: 3 (75-100)
[4]; 5.60 kg/h
  herbicidal rating: 3 (75-100)
[5]; 0.28 kg/h
  herbicidal rating: 1 (25-49)
[5]; 1.12 kg/h
  herbicidal rating: 3 (75-100)
[5]; 5.60 kg/h
  herbicidal rating: 2 (50-74)
[6]; 0.28 kg/h
  herbicidal rating: 0 (0-24)
[6]; 1.12 kg/h
  herbicidal rating: 1 (25-49)
[6]; 5.60 kg/h
  herbicidal rating: 3 (75-100)
[7]; 0.28 kg/h
  herbicidal rating: 0 (0-24)
[7]; 1.12 kg/h
  herbicidal rating: 1 (25-49)
[7]; 5.60 kg/h
  herbicidal rating: 1 (25-49)
[8]; 0.28 kg/h
  herbicidal rating: 3 (75-100)
[8]; 1.12 kg/h
  herbicidal rating: 2 (50-74)
[8]; 5.60 kg/h
  herbicidal rating: 3 (75-100)
[9]; 0.28 kg/h
  herbicidal rating: 3 (75-100)
[9]; 1.12 kg/h
  herbicidal rating: 2 (50-74)
[9]; 5.60 kg/h
  herbicidal rating: 3 (75-100)
[10]
  herbicidal rating: 1 (25-49)
[11]
  herbicidal rating: 2 (50-74)
[12]
  herbicidal rating: 2 (50-74)
[13]
  herbicidal rating: 1 (25-49)
[14]
  herbicidal rating: 2 (50-74)
[15]
  herbicidal rating: 1 (25-49)
[16]
  herbicidal rating: 0 (0-24)
[17]
  herbicidal rating: 1 (25-49)
[18]
  herbicidal rating: 0 (0-24)
[19]
  herbicidal rating: 2 (50-74)
[20]
  herbicidal rating: 1 (25-49)
[21]; 2 WAT, 0.28 kg/h
  herbicidal rating: 0 (0-24)
[21]; 2 WAT, 1.12 kg/h
  herbicidal rating: 0 (0-24)
[21]; 2 WAT, 5.60 kg/h
  herbicidal rating: 2 (50-74)
[21]; 4 WAT, 11.2 kg/h
  herbicidal rating: 1 (25-49)
[22]; 2 WAT, 0.28 kg/h
  herbicidal rating: 1 (25-49)
[22]; 2 WAT, 1.12 kg/h
  herbicidal rating: 1 (25-49)
[22]; 2 WAT, 5.60 kg/h
  herbicidal rating: 3 (75-100)
[22]; 4 WAT, 11.2 kg/h
  herbicidal rating: 3 (75-100)
[23]
  herbicidal rating: 3 (75-100)
[24]
  herbicidal rating: 0 (0-24)
[25]; 2 WAT, 0.28 kg/h
  herbicidal rating: 3 (75-100)
[25]; 2 WAT, 1.12 kg/h
  herbicidal rating: 3 (75-100)
[25]; 2 WAT, 5.60 kg/h
  herbicidal rating: 3 (75-100)
[25]; 4 WAT, 11.2 kg/h
  herbicidal rating: 3 (75-100)
[26]
  herbicidal rating: 2 (50-74)
[27]
  herbicidal rating: 1 (25-49)
[28]; 2 WAT, 0.28 kg/h
  herbicidal rating: 3 (75-100)
[28]; 2 WAT, 1.12 kg/h
  herbicidal rating: 3 (75-100)
[28]; 2 WAT, 5.60 kg/h
  herbicidal rating: 3 (75-100)
[28]; 4 WAT, 11.2 kg/h
  herbicidal rating: 2 (50-74)
[29]; 2 WAT, 0.28 kg/h
  herbicidal rating: 2 (50-74)
[29]; 2 WAT, 1.12 kg/h
  herbicidal rating: 1 (25-49)
[29]; 2 WAT, 5.60 kg/h
  herbicidal rating: 3 (75-100)
[29]; 4 WAT, 11.2 kg/h
  herbicidal rating: 3 (75-100)
[30]; 2 WAT, 0.28 kg/h
  herbicidal rating: 3 (75-100)
[30]; 2 WAT, 1.12 kg/h
  herbicidal rating: 3 (75-100)
[30]; 2 WAT, 5.60 kg/h
  herbicidal rating: 3 (75-100)
[30]; 4 WAT, 11.2 kg/h
  herbicidal rating: 3 (75-100)
[31]; 2 WAT, 0.28 kg/h
  herbicidal rating: 0 (0-24)
[31]; 2 WAT, 1.12 kg/h
  herbicidal rating: 0 (0-24)
[31]; 2 WAT, 5.60 kg/h
  herbicidal rating: 1 (25-49)
[31]; 4 WAT, 11.2 kg/h
  herbicidal rating: 1 (25-49)
